From PubChem BioAssay (NCI)
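A five-concentration, 48-hour dose response in 96-well plates underlies each endpoint, interpolated linearly between surrounding concentrations. At the GI50, growth is halved. The concentration for full growth arrest is given as TGI.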

How the values were obtained:
Test in all cases: NCI anticancer screen, dose series, 48 h
[1] = system: CCRF-CEM leukemia
[2] = system: NCI-H226 lung
[3] = system: HCT-15 colon
[4] = system: ACHN renal
[5] = system: SW-620 colon
[6] = system: U251 CNS
[7] = system: 786-0 renal
[8] = system: IGROV1 ovarian
[9] = system: HOP-92 NSCLC
[10] = system: EKVX NSCLC
[11] = system: DU-145 prostate
[12] = system: MDA-MB-435
[13] = system: BT-549 breast

SMILES	TGI [1] [µM]	TGI [2] [µM]	TGI [3] [µM]	TGI [4] [µM]	TGI [5] [µM]	TGI [6] [µM]	TGI [7] [µM]	TGI [8] [µM]	TGI [9] [µM]	TGI [10] [µM]	TGI [11] [µM]	TGI [12] [µM]	TGI [13] [µM]	GI50 [1] [µM]	GI50 [9] [µM]	GI50 [11] [µM]	GI50 [2] [µM]	GI50 [4] [µM]
O=C1C2Cc3ccccc3CN2C(=O)N1CN1CCCCC1 (centres undefined)	> 100	> 100	> 100	> 100	> 100	> 100	> 100	> 100										
Cn1cnc([N+](=O)[O-])c1Sc1nnc(-c2ccc(Cl)cc2)n1C	22	65.9		29.3	23.5	30.4		32.7	25.8	20.4								
CN(C)c1ccc(/C=C(\C#N)C(=O)c2ccccc2)cc1Br	> 100	> 100		> 100	> 100	> 100	> 100		> 100	> 100								
CSCCC(NOC(=O)Cc1ccccc1)P(=O)(O)c1ccccc1 (centres undefined)	> 100	> 100	> 100	> 100	> 100	> 100		> 100	> 100		> 100	> 100						
COc1ccccc1-c1nc[nH]c1-c1ccccc1OC			> 100	> 100	> 100		> 100	> 100	> 100	> 100			> 100					
O=C(NC12CC3CC(CC(C3)C1)C2)n1cnc2c(Cl)ncnc21	45.7		> 100	50.8	> 100	92.3	> 100	35.4	> 100	71.8	63.9	40	84.1					
Cn1c(=Nc2ccccc2[N+](=O)[O-])sc2ccccc21	> 100	> 100	> 100	> 100	> 100	> 100	> 100	> 100	61.7	> 100	> 100	> 100						
COc1ccc(/C=N/NC(=O)NCCNCCO)cc1	> 100	> 100	> 100	> 100	> 100	> 100	> 100	> 100	> 100									
O=C(O)C(=Cc1ccc(-c2ccc([N+](=O)[O-])cc2)o1)C(=O)O	> 100	> 100	> 100	> 100	> 100	> 100	> 100	> 100		> 100	> 100	> 100	> 100					
COC(=O)C12CCC(CC1=O)C2(C)C (centres undefined)		> 100	> 100	> 100	> 100	> 100	> 100	> 100	> 100	> 100								
CCCN1CCN(c2ccc3nc(-c4ccc5nc(-c6ccc(OCC)cc6)[nH]c5c4)[nH]c3c2)CC1	3.58	32.9		2.4					28.4		2.78			0.629	5.05	1.33	10.1	1.15
Nc1ccc(Oc2ccc(C34CC5CC(C3)CC(c3ccc(Oc6ccc(N)c(O)c6)cc3)(C5)C4)cc2)cc1O		9.93	4.37	3.5	> 100	2.72	> 46	3.04	4.48	3.63	3.3		3.37					
O=C(NNC(=O)c1ccccc1O)c1cccs1	> 100	> 100	> 100		> 100	> 100	> 100	> 100		> 100	> 100	> 100	> 100					
N#Cc1ccccc1C#C/C=C\C#Cc1ccccn1	> 100		70	> 100	31.9	38.3	41.9	36.7	> 100	57.7	83.5	20.4						
COc1ccc(-c2oc(C=Nc3ccccc3)c([N+](=O)[O-])c2-c2ccc(OC)c(OC)c2)cc1OC		> 100	> 100	> 100	> 100	> 100	> 100	> 100	> 100									
C#CCN1C(=O)CN2C(Cl)(Cl)C2(c2ccccc2)c2cc(Cl)ccc21 (centres undefined)	> 100	> 100	> 100	> 100	> 100				> 100	> 100								
CCN(CC)CCNC(=O)C1COc2ccc(-c3cc(=O)c4ccccc4o3)cc2O1 (centres undefined)	68.6	31.3	31.8		45.9	> 65.2		63.5	53.9	61								
O=C1/C(=C/Cc2ccco2)N=C(c2ccccc2)N1c1nc2ccc(Sc3ccccc3)cc2[nH]1	44.2		> 100	44.9	> 100	43.9	38.5	> 100	67.6	> 100	70.5	23.5	57.7					
CCN1CC2(CO)CCC(OC)C34C5CC6C(OC)CC(O)(C5C6OC)C(O)(C(OC)C23)C14 (centres undefined)	> 375	> 375	> 375		> 375	> 375		> 375	> 375	> 65								
Cc1nc2cc3[nH]c4ccccc4c(=O)c3cc2s1	> 100	> 100	> 100	> 100	> 100	> 100	> 100	> 100	> 100	> 100								
Cc1cccc(N=Nc2ccc(O)c(CN(C)C)c2)c1	4.69	> 100	80.6	34.9	66.8	> 100	92.5	65.9	> 100	58.1		35.8	> 100					
